Experimental findings from patent publication US8314108B2, “5-(5-(2-(3-aminopropoxy)-6-methoxyphenyl)-1H-pyrazol-3-ylamino)pyrazine-2-carbonitrile, pharmaceutically acceptable salts thereof, or solvate of salts” (Eli Lilly and Company, priority 2008, dated 2012) are described below.

The subject of assay [1] is HT-29 cells. Nature of the assay: ECtfs (Two-Fold Sensitization) Assay, 3H-thymidine incorporation. The class given is cell-based. For orientation: Dividing cells build labelled thymidine or BrdU into new DNA.
Description: The capacity for continued tumor cell proliferation after DNA damage can be analyzed by determining the ability of cells to replicate their DNA. […] Following a recovery period, cells are assayed for the ability to incorporate radioactive thymidine into DNA during S phase. The ECtfs parameter is a measure of the concentration of a Chk1 inhibitor necessary to reduce by half the GI90 concentration of gemcitabine, measured in this assay in the absence of Chk1 inhibition. […] These cells are plated at 1.3×10^3 per well on Corning Costar 96-well tissue culture plates. After plating the cells, the tissue culture plates are held at room temperature for 45 minutes, before returning to 37° C. Plates are incubated for 24 hours prior to gemcitabine addition. Before gemcitabine addition, medium is removed from all wells and replaced with 150 μL per well of fresh RPMI medium. Gemcitabine stocks at 10 mM are prepared in phosphate-buffered saline. Gemcitabine dilutions were prepared at 4× concentrations in RPMI medium and added to wells at 50 μL per well. The highest final concentration of gemcitabine used is 80 μM and dilutions proceed by four-fold steps. Two hours later, gemcitabine-containing medium is removed from the wells and replaced with 150 μL per well of fresh RPMI medium. […] The volume of addition is 50 μL. Compound dilutions proceed by two-fold steps, starting at 5000 nM. […] 20 μL of this solution is added to each well, yielding 1 μCi/well of ^3H-thymidine. Cells are labeled for twenty-two hours. The medium containing ^3H-thymidine is thoroughly removed from the wells. The plates are then frozen at −20° C., for several hours. To harvest the DNA containing incorporated ^3H-thymidine, plates are thawed for several minutes, and then 120 μL per well of 0.1 N NaOH is added to each well. Each plate is then incubated at 37° C., with slow mixing on a rotator, for 10 minutes. […] The wells of the tissue culture plate on which cells had been labeled are washed with water 5×. The Unifilter plate membranes are washed with an additional 4.5 mL per well (3×1.0 mL and finally a 1.5 mL wash). The Unifilter plates are then dried at 37° C. for at least 6 hours. The bottom of each filter plate was sealed with a Backseal adhesive sheet (PerkinElmer), and the 50 μL/well of MicroScint-20 (Perkin Elmer) is added. Each plate is then sealed with a Topseal clear adhesive sheet (PerkinElmer). Plates are counted on a Topcount scintillation counter (PerkinElmer), at 1 minute per well. ^3H-thymidine counts per minute (cpm) are exported into Prism (GraphPad) for analysis and plotting. […] For plotting the data in Prism, the gemcitabine concentrations are transformed to log values, and dose-response curves are fit by non-linear regression. Neither top nor bottom fits are constrained.
The test system of assay [2] is Calu-6 lung tumor xenograft. Nature of the assay: Human Tumor Xenograft Model, Calu-6 lung. The class given is in vivo, nude mice. The conditions noted are these: Calu-6 xenograft. Here is the method:
(§1) The ability of Chk1 inhibitors to effect tumor killing can be determined in vivo using the Calu-6 lung and HT-29 colon tumor xenograft efficacy models. Calu-6 lung cancer cells (ATCC) are cultured in growth media (MEM w/Earle's salts (Invitrogen) with L-glutamine (Gibco™) supplemented with 10% (v/v) heat inactivated FBS (Gibco™), 1×MEM non-essential amino acids (Gibco™), 1× sodium pyruvate (Gibco™)) and HT-29 colon cancer cells (ATCC) are cultured in growth media, (McCoy's 5A medium (Gibco™) supplemented with 10% FBS (Gibco™)) and expanded. Cells are harvested and washed twice with phosphate buffered saline and 5×10^6 cells (HT-29) or 1×10^6 cells (Calu-6) in growth media (without serum) are mixed with equal volume of BD Matrigel™ matrix (BD Bioscience, Franklin, N.J.), then injected subcutaneously into the flank of nude mice (CD-1 nu/nu, from Charles River Labs, Wilmington, Mass.). At about day 16 after implant (150-200 mm^3), gemcitabine is formulated fresh in saline daily and administered to animals by intraperitoneal route at 60 mg/kg dose. […] Tumor response is determined by tumor volume measurement performed twice a week during the course of treatment. Tumor growth inhibition (TGI) is calculated as the percent reduction in mean tumor size of a compound treated group from the mean tumor size of the vehicle-treated control group.
In general terms: Xenograft models place foreign cells or tissue in a host animal.

For assay [3], the system named is Calu-6 lung xenograft. Nature of the assay: Single Agent Efficacy Dosing, Calu-6 lung xenograft. The assay is classed as in vivo, nude mice. The conditions noted are these: 15 mg/kg subcutaneously, BID×5 rest 2 days, ×3 cycles. The method, then: The ability of Chk1 inhibitors to effect tumor killing can be determined in vivo using the Calu-6 lung xenograft efficacy model. Calu-6 lung cancer cells (ATCC) are cultured as described above. Cells are harvested and washed twice with phosphate buffered saline and 1×10^6 cells (Calu-6) in growth media (without serum) are mixed with equal volume of BD Matrigel™ matrix (BD Bioscience, Franklin, N.J.), then injected subcutaneously into the flank of nude mice (CD-1 nu/nu, from Charles River Labs, Wilmington, Mass.).

Assay [4] deals with Thirty solid tumor cell lines. The assay is described as follows: Monolayer Proliferation and Cytotoxicity Assay (modified propidium iodide assay, Oncotest). The class given is cell-based. The note with it: 96 h; majority of thirty solid tumor cell lines, 4 days of treatment; read-out: EC50 (growth inhibition of tumor cell lines). From the text: One measure of potency of a Chk1 inhibitor is its ability to inhibit the proliferation of cancer cells in culture due to uncontrolled replication origin activation. (Conti et al. Cell Cycle 6: 2760-2767, 2007) Determination of Chk1 inhibitor antiproliferative activity in cell lines derived from a broad range of tumor types is indicative of which tumor types may be clinically responsive to chemotherapy with Chk1 inhibitors. The following described cellular proliferation assay is run at Oncotest, GmbH in Germany. Thirty solid tumor cell lines are derived from 13 different tumor histotypes, each represented by 1 to 6 different cell lines (Oncotest, GmbH). […] Briefly, adherent cells are harvested from exponential phase cultures by trypsinization, counted and plated in 96 well flat-bottomed microtiter plates at a cell density depending on the cell line (4.000-20.000 cells/well). […] Finally, PI fluorescence is measured using the Cytofluor 4000 microplate reader (excitation λ=530 nm, emission λ=620 nm) to determine the total viable cell number. Growth inhibition is expressed as Test/Control×100 (% T/C) values. Based on the T/C values, relative IC50 values are determined using non-linear regression (log [conc. of inhibitor] versus response (% T/C)).

Assay [5] deals with HT-29 colon tumor xenograft. Nature of the assay: Human Tumor Xenograft Model, HT-29 colon. The class given is in vivo, nude mice. The note with it: HT-29 xenograft. Here is the method:
as §1

Where [6] appears, read: stated jointly for both HT-29 and Calu-6 models.

Structures can show the parent of a compound that is named as a salt.

By EC50 is commonly meant the concentration needed to bring the measured effect to its halfway point. For `Nc1ccn([C@@H]2O[C@H](CO)[C@@H](O)C2(F)F)c(=O)n1` [gemcitabine, reference compound], the EC50 in assay [1] (Homo sapiens, HT-29, gemcitabine alone, HT29 colon carcinoma cells) was 0.037 µM. Further, the “percentage of proliferation inhibition” value in assay [1] (gemcitabine alone, HT29 cells) was determined as 52%.

Turning to `COc1cccc(OCCCN)c1-c1cc(Nc2cnc(C#N)cn2)n[nH]1` [Example 2, 5-(5-(2-(3-Aminopropoxy)-6-methoxyphenyl)-1H-pyrazol-3-ylamino)pyrazine-2-carbonitrile dihydrogen chloride salt], the anti-tumor activity result in assay [2] (dosed alone and in combination with gemcitabine 60 mg/kg, intravenous, Q3Dx4) is given as “excellent dose dependent anti-tumor activity”; in assay [5] (dosed alone and in combination with gemcitabine 60 mg/kg, intraperitoneal, Q3Dx4), “excellent dose dependent anti-tumor activity”. The “increase in tumor growth inhibition over gemcitabine alone” value in assay [2] (setting [6]) and in assay [5] (setting [6]) was “six-fold” in each case. Besides, the “growth inhibition compared with the gemcitabine plus compound combination schedule” value in assay [3] is reported as “superior growth inhibition”. Also, in assay [3], the tumor regression entry was “Complete tumor regression is rapid and durable”. The “decrease of the EC50 of gemcitabine” value in assay [1] (3 nM of the compound of Example 2, HT29 colon carcinoma cells) was determined as 7 fold. For the same compound, in assay [1] (concentration of Chk1 inhibitor necessary to reduce by half the GI90 concentration of gemcitabine, HT-29 cells), the ECtfs value came to 0.3 nM. The EC50 in assay [4] was less than 0.02 µM.
